In article PMC7865754, “Design and Synthesis of π-Extended Resveratrol Analogues and In Vitro Antioxidant and Anti-Inflammatory Activity Evaluation” (Molecules, 2021):
Where “and” joins values, the source holds several entries; their conditions need not be identical. Identical values can stand only once.

Tests used:
[1] = In vitro ABTS radical scavenging assay; details: mean ± SEM, n = 3; 30 min incubation, absorbance at 734 nm
Method: ABTS (2,2′-azinobis (3-ethylbenzothiazoline-6-sulfonic acid) diammonium salt) assay was used for the antioxidant estimation. Though many methods are available, this appears to be the most popular because of its operational simplicity, short experimental time, and the employment of the inexpensive spectrophotometer.
Antioxidant activity was tested in the dark room by ABTS assay. UV-1800 (Shimadzu Corporation, Kyoto, Japan) was used to measure UV absorption. Hellma’s 104.600-QC Quartz cell was used as a UV cell. IC50 values were obtained using OriginPro 8.0 software (OriginLab Corporation, Northampton, MA, USA).
Antioxidant assay using ABTS
The radical cation was prepared by mixing an equal amount of 7mM ABTS (2,2’-azino-bis(3-ethylbenzothiazoline-6-sulphonic acid)) stock solution with 2.45 mM potassium persulfate stock solution. This mixture was stored at 0 °C for 12 hours under darkness. The above ABTS […]
Then these solutions were diluted with methanol to 500 µM, 250 µM, 125 µM, 62.5 µM, […]
tubes, 0.9 mL of the ABTS solution and 0.1 mL of the compound solution were mixed under darkness. After 30 min of incubation, the UV absorption at 734 nm was measured. Control was used the mixture of 0.9 mL ABTS and 0.1 mL methanol. […]
(§1) Statistical analysis. Statistical significance was analyzed using the GraphPad Prism 5 software (GraphPad Software, San Diego, CA, USA). The comparison of two groups was performed by the unpaired t test. Values of *P less than 0.05, **P less than 0.01 and ***P less than 0.001 were considered statistically significant.

[2] = tested on: IL-6 gene expression in LPS-stimulated RAW 264.7 cells; experiment: Pro-inflammatory cytokine gene expression by endpoint RT-PCR, IL-6; format: cell-based, Murine; details: 12.5~50 μM compound, 1 μg/mL LPS, 24 h
Method: (§2) We have further investigated whether resveratrol and its analogues can reduce the inflammatory activity of macrophages. For this purpose, we examined the downregulation of pro-inflammatory cytokine gene expression of LPS-stimulated RAW 264.7 cells by potent inhibitors of NO production (1, 2, 5, and 7) (Figure 2). […] Treatment with 50 μM of analogue 2 was highly toxic to the cells.
(§3) Figure 2 Inhibitory effects of 1–7 on pro-inflammatory cytokine production of activated macrophage cells. RAW 264.7 cells were treated with 1 μg/mL LPS for 24 h in the presence of the indicated amounts (12.5~50 μM) of compounds. Gene expression levels were analyzed by endpoint reverse transcriptase-polymerase chain reaction and 1.5% agarose gel electrophoresis. GAPDH was used as a control.
(§4) Reverse transcriptase-polymerase chain reaction (RT-PCR)
(§5) Total RNA was isolated from Raw 264.7 cells using TRIzol reagent (Invitrogen, Waltham,
(§6) MA, USA). Relative levels of pro-inflammatory cytokine gene expression were tested by
(§7) 1.5% agarose gel electrophoresis after endpoint RT-PCR using GoScript™ Reverse
(§8) Transcriptase (Promega). The sequences of the sense and anti-sense primers used for
(§9) amplification are as follows. IL-1β, 5’-[…]-3’, 5’-
(§10) TNF-α, 5’-[…]-3’, 5’-GGCACCA
(§11) -3’. As a control, glyceraldehyde-3-phosphate dehydrogenase
(§12) (GAPDH) gene was also amplified using 5’-[…]-3’, 5’-
(§13) (1 picture or pasted object on this page, not shown here)

[3] = tested on: IL-1β gene expression in LPS-stimulated RAW 264.7 cells; experiment: Pro-inflammatory cytokine gene expression by endpoint RT-PCR, IL-1β; format: cell-based, Murine; details: 12.5~50 μM compound, 1 μg/mL LPS, 24 h
Method: as §2, §3, §4, §5, §6, §7, §8, §9, §10, §11, §12, §13

RAW 264.7 cells = experiment: Cell viability (MTT) assay; format: cell-based; details: for Cell Viability LD50: 24 h
Source text: In the pathogenesis of inflammatory-related disorders, NO is recognized as one of the important mediators. […] Herein, to understand the anti-inflammatory properties of the resveratrol analogues, we studied their inhibitory effects against NO production in LPS-treated RAW 264.7 cells. Although it is not possible to measure NO quantitatively in a biological environment due to its rapid oxidation to NO2 (nitrite), short physiological half-life and presence of other free radicals, NO secretion activity in cells is indirectly determined by Griess assay counting its stable product NO2 levels. The inhibitory effects of 1–7 on NO production were collected in Table 2. […] Cell viability was not affected up to 50 μM except for 2. We also applied in vitro efficacy index (iEI) paradigm, the ratio of toxicity (LD50)/anti-inflammatory potency (ED50), to confirm that the anti-inflammatory activity is in the viable cells only. […] On the whole, compounds 5 and 7 have much-improved iEI values compared to any other compounds. […]
NO assay and cell viability test
Murine macrophage, Raw 264.7 cells were grown in Dulbecco’s modified Eagle’s medium (Gibco, Carlsbad , CA, USA), supplemented with 2 mM glutamine, antibiotics (100 U/mL of penicillin A and […] of streptomycin) and 10% FBS (Gibco). Cells were cultured in 96-well plates (5×10^4 cells), treated with serial dilutions of compound (3.125-100 µM) and stimulated with LPS (1 µg/mL) for 24 h at 37°C. After incubation, the supernatant was collected and the amount of nitrite was quantified using the Griess Reagent System ( Promega, Fitchburg, WI, USA ). For the correction of NO production, cell viability was measured using the CellTiter 96® Aqueous one solution cell proliferation assay kit (Promega). Cells were incubated with varying amounts of compound for 24 h, then MTS (tetrazolium salt) reagent was added to the plates. After 1h, the absorbance at 490 nm was read using a microplate reader (Thermo Scientific, Waltham, MA, USA).
as §1

[4] = tested on: TNF-α gene expression in LPS-stimulated RAW 264.7 cells; experiment: Pro-inflammatory cytokine gene expression by endpoint RT-PCR, TNF-α; format: cell-based, Murine; details: 12.5~50 μM compound, 1 μg/mL LPS, 24 h
Method: as §2, §3, §4, §5, §6, §7, §8, §9, §10, §11, §12, §13

[5] = tested on: NO production in LPS-treated RAW 264.7 cells; experiment: Inhibition of NO production (Griess assay, nitrite) in LPS-treated RAW 264.7 cells; format: cell-based, Murine; details: LPS 1 μg/mL, 24 h, NO2 released into culture media, mean ± SEM, n = 3
Source text: In the pathogenesis of inflammatory-related disorders, NO is recognized as one of the important mediators. […] Herein, to understand the anti-inflammatory properties of the resveratrol analogues, we studied their inhibitory effects against NO production in LPS-treated RAW 264.7 cells. Although it is not possible to measure NO quantitatively in a biological environment due to its rapid oxidation to NO2 (nitrite), short physiological half-life and presence of other free radicals, NO secretion activity in cells is indirectly determined by Griess assay counting its stable product NO2 levels. The inhibitory effects of 1–7 on NO production were collected in Table 2. […] Cell viability was not affected up to 50 μM except for 2. […]
Anti-inflammatory activity was measured as the effect of compounds on inhibiting NO production versus cell viability. […]
Murine macrophage, Raw 264.7 cells were grown in Dulbecco’s modified Eagle’s medium (Gibco, Carlsbad , CA, USA), supplemented with 2 mM glutamine, antibiotics (100 U/mL of penicillin A and […] of streptomycin) and 10% FBS (Gibco). […] After incubation, the supernatant was collected and the amount of nitrite was quantified using the Griess Reagent System ( Promega, Fitchburg, WI, USA ). For the correction of NO production, cell viability was measured using the CellTiter 96® Aqueous one solution cell proliferation assay kit (Promega). […]

[6] = RAW 264.7 cells, mean ± SEM, n = 3

Question: Which IC50 [1] does the source give for O=C1O[C@H]([C@@H](O)CO)C(O)=C1O [Ascorbic acid, reference compound] here?
Answer: 19.8 ± 0.934 µM

Question: With Oc1ccc(/C=C/c2cc(O)cc(O)c2)cc1 [Compound 1, 3,5,4′-trihydroxy-trans-stilbene, reference compound] as the molecule, how does the “Level of IL-6 gene expression” value [2] read?
Answer: significantly reduced

Question: And the “Level of IL-1β gene expression” value [3]?
Answer: significantly reduced

Question: And the “Cell Viability LD50” value (RAW 264.7 cells; mouse)?
Answer: 81.08 ± 9.258 µM

Question: And the “Level of TNF-α gene expression” value [4]?
Answer: did not change

Question: Which “Level of IL-6 gene expression” value [2] does the source give for Oc1cc(O)cc(/C=C/c2ccc3cc(O)ccc3c2)c1 [Compound 2] here?
Answer: significantly reduced

Question: What about the “Level of IL-1β gene expression” value [3] of the same molecule?
Answer: significantly reduced

Question: And the “Toxicity to the cells” value (RAW 264.7 cells; 50 μM, LPS-stimulated RAW 264.7 cells, seen in the RT-PCR experiment (RNA degraded, no PCR amplification))?
Answer: highly toxic

Question: And the “Cell Viability LD50” value (RAW 264.7 cells; [6])?
Answer: 28.82 ± 0.767 µM

Question: What about the “Level of TNF-α gene expression” value [4] of the same molecule?
Answer: did not change

Question: What about the IC50 [1] of the same molecule?
Answer: 3.14 ± 0.445 µM

Question: With Oc1cc(O)cc(/C=C/c2cnc3cc(O)ccc3c2)c1 [Compound 3] as the molecule, how does the “Cell Viability LD50” value (RAW 264.7 cells; [6]) read?
Answer: 167.12 ± 13.652 µM

Question: And the IC50 [1]?
Answer: 3.57 ± 0.496 µM

Question: For Oc1cc(O)cc(/C=C/c2ccc3cc(O)ccc3n2)c1 [Compound 4], which “Cell Viability LD50” value (RAW 264.7 cells; [6]) is on record?
Answer: 123.47 ± 6.388 µM

Question: And the IC50 [1]?
Answer: 3.61 ± 0.253 µM

Question: Which “Level of IL-6 gene expression” value [2] does the source give for Oc1cc(O)cc(/C=C/c2cc3ccc(O)cc3cn2)c1 [Compound 5] here?
Answer: significantly reduced

Question: And the “Level of IL-1β gene expression” value [3]?
Answer: significantly reduced

Question: What about the “NO/MTT Assay ED50” value [5] of the same molecule?
Answer: 13.08 µM and 13.08 ± 0.690 µM

Question: And the “Cell Viability LD50” value (RAW 264.7 cells; [6])?
Answer: 63.30 ± 1.139 µM

Question: And the “Level of TNF-α gene expression” value [4]?
Answer: did not change

Question: And the IC50 [1]?
Answer: 2.81 ± 0.034 µM

Question: For Oc1cc(O)cc(/C=C/c2cnc3cc(O)ccc3n2)c1 [Compound 6], which “Cell Viability LD50” value (RAW 264.7 cells; [6]) is on record?
Answer: 120.46 ± 4.237 µM

Question: And the IC50 [1]?
Answer: 3.1 ± 0.953 µM

Question: With Oc1cc(O)cc(/C=C/c2ncc3cc(O)ccc3n2)c1 [Compound 7] as the molecule, how does the “Level of IL-6 gene expression” value [2] read?
Answer: significantly reduced

Question: What about the “Level of IL-1β gene expression” value [3] of the same molecule?
Answer: significantly reduced

Question: What about the “NO/MTT Assay ED50” value [5] of the same molecule?
Answer: 21.67 µM and 21.67 ± 1.101 µM

Question: What about the “Cell Viability LD50” value (RAW 264.7 cells; [6]) of the same molecule?
Answer: 92.58 ± 8.745 µM

Question: What about the “Level of TNF-α gene expression” value [4] of the same molecule?
Answer: did not change

Question: And the IC50 [1]?
Answer: 3.54 ± 0.714 µM
